From ChEMBL document CHEMBL5727627, “Tetrahydropyrimidodiazepine and dihydropyridodiazepine compounds for treating pain and pain related conditions” (2020) come the findings set out here.

A word on the Ki: it is a measure of affinity in units of concentration, obtained from inhibition or displacement.

The target in this assay is Voltage-dependent calcium channel subunit alpha-2/delta-1 (Homo sapiens, UniProt P54289). Kind of assay: Binding Assay: α2δ-1: Binding Assay to Human α2δ-1 Subunit of Cav2.2 Calcium Channel.Human α2δ-1 enriched membranes (2.5 μg) were incubated with 15 nM of radiolabeled [3H]-Gabapentin in assay buffer containing Hepes-KOH 10 mM, pH 7.4.NSB (non specific binding) was measured by adding 10 μM pregabalin. After 60 min incubation at 27° C., binding reaction was terminated by filtering through Multiscreen GF/C (Millipore) presoaked in 0.5% polyethyleneimine in Vacuum Manifold Station, followed by 3 washes with ice-cold filtration buffer containing 50 mM Tris-HCl, pH 7.4.Filter plates were dried at 60° C. for 1 hour and 30 μl of scintillation cocktail were added to each well before radioactivity reading.Readings were performed in a Trilux 1450 Microbeta radioactive counter (Perkin Elmer).
Sequence of Voltage-dependent calcium channel subunit alpha-2/delta-1 (P54289 25-956 limits assumed): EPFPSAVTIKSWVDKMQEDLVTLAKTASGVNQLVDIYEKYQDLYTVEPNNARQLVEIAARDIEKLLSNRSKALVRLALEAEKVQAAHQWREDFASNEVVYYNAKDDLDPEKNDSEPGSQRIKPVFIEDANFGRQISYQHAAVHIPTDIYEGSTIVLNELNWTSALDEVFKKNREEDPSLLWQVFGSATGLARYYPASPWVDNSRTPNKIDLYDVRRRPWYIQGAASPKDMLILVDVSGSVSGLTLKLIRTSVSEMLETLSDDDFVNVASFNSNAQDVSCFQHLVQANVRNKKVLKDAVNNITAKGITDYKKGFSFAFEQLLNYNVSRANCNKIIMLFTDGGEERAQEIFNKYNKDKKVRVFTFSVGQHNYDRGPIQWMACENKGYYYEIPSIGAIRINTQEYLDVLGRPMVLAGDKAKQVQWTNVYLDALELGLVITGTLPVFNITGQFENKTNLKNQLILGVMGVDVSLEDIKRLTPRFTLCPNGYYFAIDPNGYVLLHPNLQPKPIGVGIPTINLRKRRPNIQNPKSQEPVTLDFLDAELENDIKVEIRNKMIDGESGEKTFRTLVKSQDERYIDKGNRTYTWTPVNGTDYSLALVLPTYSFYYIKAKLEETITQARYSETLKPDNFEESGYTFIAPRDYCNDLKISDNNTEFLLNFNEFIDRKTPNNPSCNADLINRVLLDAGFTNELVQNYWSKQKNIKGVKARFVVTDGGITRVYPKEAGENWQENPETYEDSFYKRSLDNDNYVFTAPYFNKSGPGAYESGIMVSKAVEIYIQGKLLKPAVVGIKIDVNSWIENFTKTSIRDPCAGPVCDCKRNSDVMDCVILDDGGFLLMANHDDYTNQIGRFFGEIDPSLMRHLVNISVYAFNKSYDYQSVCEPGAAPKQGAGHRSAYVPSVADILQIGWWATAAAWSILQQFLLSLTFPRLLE
Sequence of Voltage-dependent calcium channel subunit alpha-2/delta-1 (P54289 957-1103 limits assumed): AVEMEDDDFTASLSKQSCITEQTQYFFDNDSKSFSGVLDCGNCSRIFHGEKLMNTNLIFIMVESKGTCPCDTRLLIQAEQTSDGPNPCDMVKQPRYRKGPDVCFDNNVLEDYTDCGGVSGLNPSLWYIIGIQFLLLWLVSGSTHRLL

`CSc1ncc2c(n1)N(C)CCN(c1cccc(-c3nnc(CN(C)C(=O)OC(C)(C)C)o3)c1)C2=O`: the Ki was more than 3 µM.

`CCNc1cc2c(cn1)C(=O)N(c1cccc(OC(CCN(C)C(=O)OC(C)(C)C)c3ccccc3)c1)CCN2C` (stereo not given): the Ki was more than 3 µM.

For the molecule `CSc1ncc2c(n1)N(C)CCN(c1cccc(OC(CCN(CCF)C(=O)OC(C)(C)C)c3cccs3)c1)C2=O` (stereo not given), the Ki was more than 3 µM.

For `CNCC[C@H](Oc1cc(F)ccc1CN1CCN(C)c2nc(OC)ncc2C1=O)c1cccs1`, the Ki is more than 3 µM.

As for `CCNc1cc2c(cn1)C(=O)N(c1cccc(COC(CCN(C)C(=O)OC(C)(C)C)c3ccccc3)c1)CCN2C` (stereo not given), the Ki is more than 3 µM.
